Assay results reported in PubChem BioAssay (NCI).
Several values for one entry are separate records, joined by “and”; a condition that tells them apart may be missing. Equal values may be shown once.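 Five compound concentrations were applied to cells in 96-well plates for 48 hours; endpoints were derived by simple linear interpolation of the resulting dose-response curve. Abbreviation: GI50, concentration required for 50% inhibition of growth. TGI is the concentration that stops growth completely.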

How the values were obtained:
Assay in all cases: NCI-60 cell line screen, 48 h
[1] = system: U251 CNS
[2] = system: OVCAR-4 ovarian
[3] = system: RXF 393 renal
[4] = system: 786-0 renal
[5] = system: RPMI-8226 leukemia
[6] = system: IGROV1 ovarian
[7] = system: CAKI-1 renal
[8] = system: HCC-2998 colon

Structure (SMILES) | GI50 [1] | TGI [1] | GI50 [2] | TGI [2] | GI50 [3] | TGI [3] | GI50 [4] | TGI [4] | GI50 [5] | TGI [5] | GI50 [6] | TGI [6] | GI50 [7] | TGI [7] | GI50 [8] | TGI [8]
CCN(CC)CCC(CNc1c2ccc([N+](=O)[O-])cc2nc2cc(OC)c(OC)cc12)c1ccccc1 (stereo not given) | 0.294 µM and 0.203 µM | 1.13 µM and 1.22 µM | 0.271 µM and 0.228 µM | 1.03 µM and 0.863 µM | 0.541 µM and 0.228 µM | 1.77 µM and 0.662 µM | 1.07 µM and 0.671 µM | 2.54 µM and 1.93 µM | 0.272 µM and 0.0638 µM | 1.15 µM and 0.411 µM | 0.405 µM and 0.29 µM | 1.66 µM and 1.02 µM | 1.68 µM and 1.58 µM | 3.78 µM and 3.76 µM | 0.138 µM and 0.114 µM | 0.348 µM and 0.284 µM
O=C(O)c1ccc([N+](=O)[O-])c(P(=O)(O)O)c1 | – | > 100 µM | – | > 100 µM | – | > 100 µM | – | > 100 µM | – | > 100 µM | – | > 100 µM | – | > 100 µM | – | –
S=C(Nc1ccc(-c2nc3ccccc3s2)cc1)Nc1ccccn1 | 27.9 µM | > 100 µM | 37 µM | > 100 µM | 33.1 µM | > 74.5 µM | 24.7 µM | 70.4 µM | 33.8 µM | > 100 µM | 29.8 µM | > 78.1 µM | 17.3 µM | 45.7 µM | 21.9 µM | 60.2 µM
CCN1CCN(CCNc2nccc(-c3c(-c4cccc(O)c4)nc4sccn34)n2)S1(=O)=O | 30.8 µM and 11.1 µM | 32.5 µM and > 100 µM | 19.5 µM and 12.1 µM | 32.5 µM and > 100 µM | 4.02 µM and 5.06 µM | 22.7 µM and 36.3 µM | 22.1 µM and 7.86 µM | 32.5 µM and > 100 µM | 6.37 µM and 16.3 µM | 20.7 µM and 40.8 µM | 11.9 µM and 5.5 µM | 32.5 µM and > 100 µM | 7.33 µM and 3 µM | 28.5 µM and > 100 µM | 32.1 µM and 29.4 µM | 32.5 µM and > 100 µM
Clc1cccc(Cn2cc(Cc3cn(Cc4cccc(Cl)c4)c4ccccc34)c3ccccc32)c1 | > 100 µM | > 100 µM | > 100 µM | > 100 µM | > 100 µM | > 100 µM | > 100 µM | > 100 µM | > 100 µM | > 100 µM | 32 µM | > 100 µM | > 100 µM | > 100 µM | > 100 µM | > 100 µM
O=C(/C=C/c1ccccc1O)c1ccccc1 | 4.18 µM | 14.4 µM | – | – | 10.3 µM | 23.4 µM | 14.4 µM | 29.7 µM | 2.44 µM | 6.68 µM | 1.56 µM | 4.12 µM | 4.26 µM | 20.8 µM | 17.9 µM | 32.6 µM
NC(Cc1cc(Br)c(O)c(Br)c1)C(=O)O (stereo not given) | – | > 100 µM | – | > 100 µM | – | > 100 µM | – | > 100 µM | – | > 100 µM | – | > 100 µM | – | > 100 µM | – | –
Cn1nc(-c2ccccc2)c(C(=O)/C=C/c2ccccc2)c(N2CCCCC2)c1=O | – | > 100 µM | – | – | – | 73.1 µM | – | > 100 µM | – | – | – | > 100 µM | – | 60.1 µM | – | –
CNC(=O)c1cc(Oc2ccc3nc(NC(=O)c4cc(C(F)(F)F)cc(C(F)(F)F)c4)sc3c2)ccn1 | 3.65 µM | 13.7 µM | 3.12 µM | 27.2 µM | 2.79 µM | 8.37 µM | 2.55 µM | 8.07 µM | 2.42 µM | > 100 µM | 4.26 µM | 27 µM | 2.75 µM | 10.7 µM | 6.63 µM | 24.7 µM
O=Cc1ncc(-c2ccc(C(F)(F)F)cc2)c(NC2CCCCCC2)n1 | > 10 µM | > 10 µM | > 10 µM | > 10 µM | > 10 µM | > 10 µM | > 10 µM | > 10 µM | > 10 µM | > 10 µM | > 10 µM | > 10 µM | > 10 µM | > 10 µM | > 10 µM | > 10 µM
COC(=O)C1=C(C(=O)Nc2cccnc2)C2OC1(C(Cc1ccccc1)Oc1ccccc1)C1OC21 (stereo not given) | 10.7 µM | 22.6 µM | 2.05 µM | 4.66 µM | 1.71 µM | 3.22 µM | 1.69 µM | 3.33 µM | 2.14 µM | 6 µM | 9.17 µM | 25.8 µM | 1.78 µM | 4 µM | 14.7 µM | 30.3 µM
CCOc1ccc(/C=N/Nc2cc(C)nc3ccc(Cl)cc23)cc1 | 1.91 µM | 3.38 µM | 1.79 µM | 3.51 µM | 1.66 µM | 3.06 µM | 1.57 µM | 3.03 µM | 1.94 µM | 4.32 µM | 1.93 µM | 3.64 µM | 1.78 µM | 3.2 µM | 2.19 µM | 3.7 µM
CCCCC(SC(=S)N(CC)CC)C(=O)Nc1nc(CC(=O)OCC)cs1 (stereo not given) | 42.1 µM | > 100 µM | 30.6 µM | > 100 µM | 32.5 µM | > 100 µM | > 100 µM | > 100 µM | 22 µM | 85.2 µM | 37.4 µM | > 100 µM | 91.7 µM | > 100 µM | 59.3 µM | > 100 µM
Nc1nn(C(=O)Nc2ccc(Cc3ccccc3)cc2)c2ccc(Cl)cc12 | 13 µM | 29.1 µM | 1.48 µM | 49 µM | 15.1 µM | 34.1 µM | 4.59 µM | 28.7 µM | 5.21 µM | 47.7 µM | 19.9 µM | > 100 µM | 0.212 µM | > 100 µM | 0.211 µM | 1.48 µM
CCOC(=O)CC(=O)N(c1ccc(OC)cc1)C(C(=O)OC)c1ccccc1 (stereo not given) | – | – | – | – | – | – | – | > 100 µM | – | > 100 µM | – | > 100 µM | – | > 100 µM | – | –
Nc1ccn(C2OC(CO[P+](=O)OC3C(CO[P+](=O)OC4C(CO[P+](=O)OC5C(CO[P+](=O)OC6C(CO[P+](=O)OC7C(CO[P+](=O)OC8C(CO[P+](=O)OC9C(CO[P+](=O)OC%10C(CO[P+](=O)OC%11C(CO)OC(n%12ccc(N)nc%12=O)C%11(F)F)OC(n%11ccc(N)nc%11=O)C%10(F)F)OC(n%10ccc(N)nc%10=O)C9(F)F)OC(n9ccc(N)nc9=O)C8(F)F)OC(n8ccc(N)nc8=O)C7(F)F)OC(n7ccc(N)nc7=O)C6(F)F)OC(n6ccc(N)nc6=O)C5(F)F)OC(n5ccc(N)nc5=O)C4(F)F)OC(n4ccc(N)nc4=O)C3(F)F)C(O)C2(F)F)c(=O)n1 (stereo not given) | – | > 100 µM | > 100 µM | > 100 µM | 0.0618 µM | > 100 µM | 0.0605 µM | > 100 µM | – | – | > 100 µM | > 100 µM | – | – | 0.339 µM | > 100 µM
O=[n+]1cnn([O-])c2ccccc21 | – | > 100 µM | – | – | – | 59.6 µM | – | 42.1 µM | – | > 100 µM | – | 28.5 µM | – | 55.1 µM | – | > 100 µM
